US20240390371A1, “HETEROARYL AND HETEROCYCLIC COMPOUNDS FOR TREATING ACUTE INFLAMMATION” (TES Pharma S.r.l., priority 2023, published 2024)

Experiments:
HK-2 cells [1] = assay: Gene expression in HK-2 cells after LPS stimulus; format: cell-based
Procedure: ((N=3) One way Anova: Dunnett's test: **p<0.01 vs pathological control.)
ACMSD inhibition, with compound I-34, decreased inflammatory gene expression (IL-6 and TNF-α) in HK-2 cells following an 18 h stimulus with 30 μg/ml of LPS.

Kupffer cells [2] = assay: Cytokine secretion in Kupffer cells exposed to LPS; format: cell-based, mouse; settings: LPS 24 h, compound 1 μM
From the text: […] Cells treated with DMSO were used as control at the final concentration of 0.5% in medium. All the wells were normalized with DMSO at 0.5% final concentration. The supernatant was collected to measure cytokine secretion using a Bio-Plex Pro mouse cytokine 23-plex assay system (cat #M60009RDPD) using a Bio-Plex Instrument. The cells were washed once with PBS, and then lysed to extract total RNA for performing RT-PCR to evaluate ACMSD modulation of IL-10, SIRT1, and STAT3 gene expression.
All cytokine secretion values were normalized to the luminescent signal relative to the measuring of the cellular ATP (CellTiter-Glo cat #G7571)).
(§1) (One way Anova: Dunnett's test: **p<0.01, ***p<0.001; vs pathological control.)

Kupffer cells [3] = assay: Gene expression in Kupffer cells after LPS-induced inflammation; format: cell-based, mouse; settings: compound 10 μM
Procedure: […] stimulated with LPS overnight […] (1 mg/mL stock solution in H2O, dispensed at 50 ng/mL in the well) final concentration. Cells treated with DMSO were used as control at the final concentration of 0.5% in medium. All the wells were normalized with DMSO at 0.5% final concentration. The supernatant was collected to measure cytokine secretion using a Bio-Plex Pro mouse cytokine 23-plex assay system (cat #M60009RDPD) using a Bio-Plex Instrument. The cells were washed once with PBS, and then lysed to extract total RNA for performing RT-PCR to evaluate ACMSD modulation of IL-10, SIRT1, and STAT3 gene expression.
Briefly, total RNA was extracted from the cells using the manufacturer's protocol for Qiagen RNeasy Plus Mini Kit (cat. 74134). The total RNA concentration was quantified using an Implen Instrument, and the purity was evaluated by measuring the ratio of A260/A280.
Total RNA (1 μg) was reverse transcribed using the manufacturer's protocol for SuperScript IV VILO Master Mix (ThermoFisher cat. #. 11756500). Real-time PCR was then performed in CFX 96 Real Time System (Bio-Rad) as follows: denaturation at 95° C. for 2 minutes, followed by 40 cycles at 95° C. for 10 s, and hybridization at 60° C. for 20 s. QPCR was performed using the 2× QuantiNova SYBR Green PCR Master Mix (Qiagen). Mouse β2 microglobulin (m β2M) was used as a reference gene.
Following inflammation induced by LPS (Kupffer cells treated with LPS 50 ng/mL […] incubation time) ACMSD inhibition, with compound I-34, reverses the changes in the expression of inflammatory modulators. Expression of pro-inflammatory genes is reduced (TNF-α, IL-6, and iNOS) and that of anti-inflammatory genes is increased (Arg-1, IL-10, and MRC2) by ACMSD inhibition.

[4] = test system: 3D human liver microtissues; assay: Cytokine expression and secretion in 3D human liver microtissues (organoids); format: cell-based; settings: free fatty acids mix and LPS 10 μg/mL, compound 10 and 50 μM, dose-response manner
Procedure: 3D InSight™ Human Liver Microtissues (organoids) composed of multi-donor primary human hepatocytes in co-culture with Non-Parenchymal Cells (NPC), containing primary human Kupffer cells and primary Liver Endothelial Cells (LEC) were provided by Insphero, Switzerland. These human liver organoids to evaluate the anti-inflammatory effect of ACMSD inhibition.
The organoids were treated with free fatty acids (palmitic acid and oleic acid according to manufacturer's instructions) and lipopolisaccaride (LPS) in a diabetic medium (Insphero) at the concentration of 10 μg/mL to induce lipid accumulation in hepatocytes and pro-inflammatory cytokine secretion including; TNF-α, IL-6, IL-8, MCP-1, and MIP1α. Vehicle control solution was prepared as negative control. DMSO was maintained constant concentration of 0.1% total solution.
Two concentrations of compound I-34 (10 μM and 50 μM) were used and added together with the NASH stimuli mix. Cytokine secretion was measured in cell medium at day 4 following treatment using the Bio-Plex Pro Human Cytokine Screening Panel (Bio-Rad) according to manufacturer's instructions.
3D human liver microtissues were treated with vehicle (DMSO), a mix of free fatty acids and LPS (10 μg/mL) and mix together with two concentrations of compound I-34 (10 and 50 μM). […]

[5] = test system: HK-2 proximal tubule cells; assay: Cisplatin-induced apoptosis (Caspases 3/7 activity) in HK-2 cells; format: cell-based; settings: Cisplatin 50 μM; compound 10, 50 and 100 μM added 1 hr before Cisplatin injury
From the text: (§2) ((N=3) One way Anova: Dunnett's test: **p<0.01, ***p<0.001; vs pathological control.)

HK-2 cells [6] = assay: Fibrotic gene expression in HK-2 cells after TGFβ insult; format: cell-based; settings: pre-treatment, TGFβ insult at 10 ng/mL
From the text: as §2

[7] = test system: mouse primary hepatocytes and murine stellate cells; assay: Gene expression in co-cultured mouse primary hepatocytes and murine stellate cells exposed to free fatty acids; format: cell-based; settings: co-culture exposed to free fatty acids (MIX)
From the text: Mouse primary hepatocytes and murine stellate cells were co-cultured with FFA to induce fibrosis as observed in NASH patients.
as §1

[8] = 18 h stimulus with 30 μg/ml LPS, compound 100 μM

**Q.** Which results are given for `N#Cc1c(Cc2ccccc2)nc(SCc2cccc(-c3nnn[nH]3)c2)[nH]c1=O` [Compound I-34, 4-Benzyl-6-oxo-2-[3-(1H-tetrazol-5-yl)-benzylsulfanyl]-1,6-dihydro-pyrimidine-5 carbonitrile]?
**A.** ACMSD expression (HK-2 cells [1]; [8]): does not significantly affect; Inflammatory gene expression (IL-6 and TNF-α) (HK-2 cells [1]; [8]): decreased; Inflammatory gene expression (IL-6 and TNF-α), dose response (HK-2 cells [1]; 18 h stimulus with 30 μg/ml LPS, several concentrations): decreased inflammatory gene expression (IL-6 and TNF-α) in a dose response manner; QPRT expression (HK-2 cells [1]; LPS 18 h, compound 100 μM): reversed LPS-induced reduction of QPRT expression; Secretion of pro inflammatory cytokines (IL-1β, IL-6, TNF-α) (Kupffer cells [2]): decreased; Expression of anti-inflammatory genes (Arg-1, IL-10, and MRC2) (Kupffer cells [3]; LPS 50 ng/mL): increased; Expression of pro-inflammatory genes (TNF-α, IL-6, and iNOS) (Kupffer cells [3]; LPS 50 ng/mL): reduced; QPRT expression (Kupffer cells [3]; LPS): reversed LPS-induced reduction of QPRT expression; Cytokine secretion (hepatic inflammation) ([4]; day 4): reducing; Cytokine expression (hepatic inflammation) [4]: reducing; Cisplatin-induced apoptosis (Caspases 3/7 activity) [5]: provides protection; Fibrotic gene expression (Fibronectin and TIMP2) (HK-2 cells [6]): decreased fibrotic gene expression (Fibronectin and TIMP2) in a dose response manner; Expression of pro-fibrotic and pro-inflammatory genes [7]: decreased
